Values of other authors in patent publication US20240122889A1, “DRY POWDER COMPOSITIONS OF TREPROSTINIL PRODRUGS AND METHODS OF USE THEREOF” (Insmed Incorporated, priority 0001, published 2024).

System: conscious male guinea pigs

Threshold dose that causes cough (inhaled TRE given by nebulization): 1.2 μg TRE/kg body weight
Timing of cough (nebulized, time of exposure): ≤ 10 min
SMILES: CCCCC[C@H](O)CC[C@@H]1[C@H]2Cc3cccc(OCC(=O)O)c3C[C@H]2C[C@H]1O [TRE, Treprostinil]
